Reference: article PMC9863266, “Preclinical Studies and Drug Combination of Low-Cost Molecules for Chagas Disease” (Pharmaceuticals, 2022)
Values joined by “and” are separate entries in the source; they are usually repeats but may differ in a detail not shown here. Equal entries are not always repeated.

Experiments:
[1] = Acute oral toxicity in mice (Up and Down test); type: in vivo; settings: CD1 and Balb/c, mouse, in vivo; oral, microemulsion
Procedure: (§1) After verifying, through the studies indicated above, the low in vitro and in vivo toxicity and the potent trypanosomicidal activity of these molecules and following the steps of preclinical drug development, the acute oral toxicity in vivo in mice was tested. For this study, the compounds were administered orally in the same microemulsion that was used in the pharmacological study on the acute model of Chagas disease. The initial number of animals is defined by the software AOT425 Stat and also depends on if there are LD50 of compounds with similar structures. Variable numbers of animals could be used if there is some toxicity observed during the first administrations. […]. In this case, one of the animals died 10 days post-administration. The LD50 calculated by the statistical program from these experiments was 2000 mg/kg b.w., the maximal dose being used for oral administration. As a result, compound 793 has low acute toxicity in these conditions. For compound 1019, a maximum dose of 2000 mg/kg b.w. was started orally in five mice until one of the ends of the trial criteria was met. […] Throughout the test, during the 14 days, the mice were evaluated by the Irwin test and their masses were recorded. […]

CD1 and Balb/c mice = test: Acute oral toxicity in mice (Up and Down test); type: in vivo; settings: 14 days
Procedure: as §1

Leishmania infantum = tested on: Leishmania infantum; design: method as in earlier work; settings: promastigotes; read-out: In vitro anti-Leishmania infantum (visceral) activity (IC50); cited from earlier work
zebrafish embryos = tested on: zebrafish embryos
Procedure: 1-Phenyl-2-thiourea (0.003%) was added to system water to inhibit melanogenesis in embryos destined for microscopic imaging. The eggs were collected, and the unfertilized ones were discarded. […] At this stage, the membrane that protects the embryo (chorion) was manually removed. This was completed on a 1 % agarose plate and medium for embryos. Two 96-well plates with a curved bottom were prepared. […] One embryo was placed per […], and it was verified that it had not suffered any injury when it was transferred. After preparing the plates, the embryos were evaluated. For this, they were placed in a humid chamber to avoid the evaporation of the compounds and were incubated at 28 °C. At 24 h, the first observation was made and half of the medium in each well was replaced to ensure that the concentrations remained constant during the 96 h of exposure. To do this, 100 µL of medium was removed from each well and replaced with 100 µL of fresh medium. […] In addition, any other type of abnormality that may indicate teratogenicity was recorded. The same was performed every 24 h until 96 h of exposure where the test was considered finished. The embryos were sacrificed in 70% ethanol. […] The curve obtained was fitted to a sigmoid using the OriginLab 8.5 program.

[2] = tested on: CL Brener clone of T. cruzi; design: method as in PMID 26492824; settings: 192 µmoles/kg/day; cited from earlier work
[3] = tested on: trypomastigote form of T. cruzi (strain Y); test: Trypanosomicidal activity in trypomastigotes; type: cell-based; settings: Trypanosoma cruzi, 24 h, 4 °C, infected mouse blood
Procedure: The experiment was performed on infected, three-month-old, Balb/c mice. Seven days post-infection, when in a parasitemia peak (>1.0 × 10^6 parasites /mL), the blood of the living (anesthetized) mouse was extracted from the aorta or eye (1 mL per mouse), and citrate was used as an anticoagulant, then seeded in a 96-well plate with a final volume of 100 μL (90 μL of blood + 10 μL from a stock solution of the compound containing 10% DMSO). It was left at 4 °C, 24 h, then 5 μL of each sample was used to count trypomastigotes using a 40x optical microscope (MO) (50-field method). The plate fill was performed by homogenizing the well before filling each well (very slowly), and it was performed in triplicate or quadruplicate to obtain the IC50 values of each compound.

T. cruzi epimastigotes = settings: read-out: In vitro anti-T. cruzi activity (multiple strains) (IC50); cited from earlier work
[4] = tested on: epimastigote form of T. cruzi, Tulahuen 2 strain; test: Viability by flow cytometry, CA-AM/IP labeling; type: cell-based; settings: 20 × IC50
Procedure: Additionally, we evaluated the viability of treated parasites by flow cytometry analysis after incubation with methylated acetoxycalcein (CA-AM) and propidium iodide (IP). […] Since the methodology used to determine the IC50 is based on 5 days of incubation, doses 20 times higher were used to analyze cell viability in shorter times. Similarly, these compounds’ concentrations were used to determine the death mechanism involved at the aforementioned times.
Viability studies of parasites by flow cytometry: The feasibility studies were carried out by evaluating the esterase activity of the parasites using Acetoxymethylated Calcein (CA-AM) and IP (Thermo Fisher Scientific). […] Fluorescence intensity for 10,000 events was acquired from two independent experiments and data were analyzed using BD CSampler software (BD Bioscience).

Question: For `O=C(/C=C/C=C/c1ccco1)/C=C/C=C/c1ccco1` [Compound 793], which LD50 at 14 days [1] is on record?
Answer: Its LD50 at 14 days is 2000 mg/kg.

Question: And the “Signs of acute toxicity (Irwin test, body mass)” value (CD1 and Balb/c mice)?
Answer: The value was “did not show signs of acute toxicity”.

Question: What about the IC50 (Leishmania infantum) of the same compound?
Answer: The IC50 was 31 µM.

Question: What about the “Teratogenicity in zebrafish (LD50 ± SD)” value (zebrafish embryos; 96 h exposure) of the same compound?
Answer: The value was 22 µM and 22 ± 5 µM.

Question: And the “Selectivity: zebrafish LD50 versus IC50 in the parasite” value (zebrafish embryos; zebrafish, in vivo)?
Answer: Its value is “four”.

Question: And the “Days Post-Infection of the First Parasitemia Peak” value [2]?
Answer: The value was 22 days.

Question: And the “Reduction in the Parasitemia Peak (%)” value [2]?
Answer: The value was 50%.

Question: What about the “Survival (%)” value [2] of the same compound?
Answer: The value was 83%.

Question: And the IC50 [3]?
Answer: Its IC50 is 25 ± 5 µM.

Question: What about the IC50 (T. cruzi epimastigotes) of the same compound?
Answer: Its IC50 is 5 µM.

Question: And the “CA-AM/IP labeling Q1-UR (CA-AM+/IP+ double-labeled parasites)” value ([4]; 6 h)?
Answer: Its value is 82%.

Question: And the “CA-AM/IP labeling Q1-UR (CA-AM+/IP+ double-labeled parasites)” value ([4]; 24 h)?
Answer: The value was 98%.
